“Also recorded” adds a separate entry of the source.
Legend:
BALB/c (H-2d) mice = test: Isotype ELISA of β-gal-specific IgG1 and IgG2a in sera of vaccinated mice; format: in vivo
Method: Isotyp ELISA: 96-well Nunc-Immuno MaxiSorp assay plates (Nunc, Roskilde, Denmark) were coated with 100 μl of β-gal (Boehringer, Mannheim, Germany) at 5 μg/ml in 0.05 M carbonate buffer (pH 9,6) per well. Serial two-fold dilutions of sera or lavages in PBS with 1% BSA and 0.05% Tween 20 were added (100 μl/well), and plates incubated for 2 h at 37° C. After washing, biotin-conjugated rat anti-mouse IgG1 or IgG2a (Pharmingen, Hamburg, Germany) were added to determine IgG subclasses. Plates were incubated for an additional 1 h at 37° C. After four washes, 100 μl of peroxidase-conjugated streptavidin (Pharmingen) was added to cells and plates incubated at 37° C. for 30 min. After four washes, reactions were developed with ABTS in 0.1 M citrate-phosphate buffer (pH 4.35) containing 0.01% H2O2. To determine the concentration of IgG subclasses in serum, standard curves were obtained by coating the wells with an isotype-specific goat anti-mouse IgG, and then by incubating with purified mouse IgG1 or IgG2 antibodies (Dianova, Hamburg, Germany).
The pattern of the different subclasses of the β-gal antigen-specific IgG isotypes present in the sera of vaccinated mice is shown in FIG. 12. […] The protocol for vaccination was identical to the protocol described in Example 3. […] The data represents the average titer of a group of 5 animals.

spleen cells = test: ELISPOT of cytokine producing spleen cells from vaccinated mice; format: in vivo; conditions: for expression of various cytokines: administered as an adjuvant (FIG. 10); for splenic IL-2 producing cells / splenic IL-4 producing cells: i.n. and s.c. route, restimulation with β-Gal protein; for antigen-specific IFNγ secreting cells / antigen-specific IL-2 secreting cells / antigen-specific IL-4 secreting cells: mice receiving adjuvant; for number of splenic IFNγ producing cells, parenteral vaccination: s.c., restimulation with MHC class I-restricted β-Gal peptide (CD8 epitope) (FIG. 10)
Method: Experimental protocol: Spleens from vaccinated mice were removed and pooled for analysis of cellular immune responses. The protocol for vaccination was identical to the protocol described in Example 2. Cells were grown in RPMI 1640 supplemented with 10% fetal calf serum, 100 U/ml of penicillin, 50 μg/ml of streptomycin, 5×10^−5 M 2-mercaptoethanol and 1 mM L-glutamine (GIBCO BRL, Karlsruhe, Germany) and maintained at 37° C. in a humidified 5% CO2 atmosphere. […]
For coating ELISPOT plates, said plates were incubated with 100 μl/well of purified capture antibody (10 μg/ml in coating buffer) at 4° C. overnight. After 6× washing steps, the plates were blocked with 200 μl/well of complete RPMI-1640 at room temperature for 1 hour. The activated cells were seeded at 100 μl per well and incubate at 37° C., in a 5% CO2 humidified incubator for 24 hours or 48h hours. After 5× washing steps with washing buffer and 1× step with distilled water, 100 μl/well of the biotinylated detection antibody with a concentration of 1 μg/ml in Assay Diluent was added and incubated at room temperature for 2 hrs. After further washing steps 100 μl/well of the AV-HRP at 1/1000 dilution in Assay Diluent was added and incubated at room temperature for 30 minutes. After further washing steps 100 μl/well of AEC Substrate Solution was added and developed at room temperature for 10-60 minutes until visible spots appeared. After washing steps with (3×) with 200 μl/well distilled water, the plates were air-dried and analyzed by counting the spots by an ELISPOT reader. Each concentration was tested in triplicates.

[1] = test system: re-stimulated spleen cells; test: Cytokines in supernatants of in vitro re-stimulated spleen cells by cytometric bead array; format: in vivo, mice; conditions: for IL-6 secretion of re-stimulated spleen cells: versus β-Gal without adjuvant (FIGS. 8 and 9); for IFNγ secretion of re-stimulated spleen cells: versus β-Gal without adjuvant, c-diGMP data from i.n. immunized mice (FIG. 7, FIG. 9)
Method: Experimental protocol: Spleens from mucosal (i.n.) or parenteral (s.c.) vaccinated mice were removed and pooled for analysis of cellular immune responses. The protocol for vaccination was identical to the protocol described in Example 2. Cells were grown in RPMI 1640 supplemented with 10% fetal calf serum, 100 U/ml of penicillin, 50 μg/ml of streptomycin, 5×10^−5 M 2-mercaptoethanol and 1 mM L-glutamine (GIBCO BRL, Karlsruhe, Germany) and maintained at 37° C. in a humidified 5% CO2 atmosphere. Spleen cell suspensions were adjusted to 5×10^6 cells/ml in complete medium, cells were seeded with 100 μl per well in a flat-bottomed 96-well microtiter plate (Nunc) and plates were incubated for 4 days in the presence of different concentrations of soluble β-gal.
To characterize the type of Th response stimulated following immunization, the content of IFNγ, IL-6, IL-10, IL-12 (for c-diAMP only), MCP-1, and TNFα was measured in supernatants from in vitro re-stimulated spleen cells (FIG. 7 and 8 for c-diGMP and FIG. 9 for c-diAMP) by the Cytometric Bead Array. Culture supernatants from proliferating cells were collected on days 2 and 4, and stored at −70° C. Determination of IFNγ, TNFα, IL-6, IL-10, IL-12, and MCP-1 was performed by cytometric bead array (CBA) analysis using the commercial kit from BectonDickinson, according to the manufacturer's instructions or with commercially available ELISA systems. For CBA analysis, a standard curve was generated for each cytokine by using the corresponding recombinant murine cytokines (Pharmingen). Probes were incubated at room temperature for additional 2h. The probes were analyzed subsequently by flow cytometry as described in the protocol of BD.

[2] = test system: primary bone marrow-derived murine dendritic cells; test: In vitro stimulation of primary bone marrow-derived murine dendritic cells, flow cytometry of surface markers; format: cell-based, BALB/c mice; conditions: 10 ng/ml c-diGMP, flow cytometry after 12 h and 24 h, versus no stimulus (FIG. 1)
Method: Experimental protocol: primary bone marrow-derived dendritic cell cultures were obtained from BALB/c mice following in vitro maturation of precursors in the presence of recombinant GM-CSF (5×104 U/ml), according to established protocols, e.g. Link, C., etal, 2004, Eur. J. Immuol, 34(3):899-907. Mature dendritic cells were stimulated with 10 ng/ml of E. coli lypopolysaccharide (LPS) or 10 ng/ml c-diGMP. The stimulation of cells was analyzed by flow cytometry to assess the expression of surface markers which are relevant for their antigen presentation capacity after 12 h and 24 h, respectively.
In order to identify compounds which may have potential as adjuvants for in vivo applications in the field of vaccines, a first in vitro screening based on the use of primary cultures of bone marrow-derived dendritic cells was established. Dendritic cells were selected since they represent the most efficient antigen presenting cells and they play a key role in primary immune responses. In fact, they represent the only cell type able to activate resting T cells initiating primary immune responses in vivo. […] At different time intervals, samples were taken, stained with fluorescent-labeled antibodies specific for cellular markers critical for the antigen presenting capacities of dendritic cells, and analyzed by flow cytometry.

[3] = i.n., average titer of 5 animals (FIG. 12A)
[4] = s.c., average titer of 5 animals (FIG. 12B)

SMILES	β-gal specific IgG1 in sera, intranasal (BALB/c (H-2d) mice; [3])	β-gal specific IgG2a in sera, intranasal (BALB/c (H-2d) mice; [3])	β-gal specific IgG1 in sera, subcutaneous (BALB/c (H-2d) mice; [4])	β-gal specific IgG2a in sera, subcutaneous (BALB/c (H-2d) mice; [4])	expression of various cytokines (spleen cells)	splenic IL-2 producing cells (spleen cells)	splenic IL-4 producing cells (spleen cells)	antigen-specific IFNγ secreting cells (spleen cells)	antigen-specific IL-2 secreting cells (spleen cells)	antigen-specific IL-4 secreting cells (spleen cells)	number of splenic IFNγ producing cells, parenteral vaccination (spleen cells)	type of Th response induced ([1]; mice immunized with β-gal plus adjuvant)	TNFα secretion of re-stimulated spleen cells ([1]; versus β-Gal without adjuvant (FIG. 9))	IL-6 secretion of re-stimulated spleen cells [1]	IFNγ secretion of re-stimulated spleen cells [1]	expression of CD40 on dendritic cells [2]	Th1 like cytokines in antigen restimulated spleen cells ([1]; β-gal/c-diGMP versus β-gal alone (FIG. 8B))
Nc1ncnc2c1ncn2[C@@H]1O[C@@H]2COP(=O)(O)O[C@H]3[C@@H](O)[C@H](n4cnc5c(N)ncnc54)O[C@@H]3COP(=O)(O)O[C@H]2[C@H]1O [c-diAMP, cyclic bis(3′-5′)diadenylic acid]	strongly increased	strongly increased	strongly increased	strongly increased	increased expression	strong expression	strong expression	increased in number	increased in number	increased in number	increment	balanced Th1/Th2 response	enhanced secretion	same results	enhanced secretion		
Nc1nc2c(ncn2[C@@H]2O[C@@H]3COP(=O)(O)O[C@H]4[C@@H](O)[C@H](n5cnc6c(=O)[nH]c(N)nc65)O[C@@H]4COP(=O)(O)O[C@H]3[C@H]2O)c(=O)[nH]1 [c-diGMP, cyclic bis(3′-5′)diguanylic acid]					increased expression	strong expression	strong expression	increased in number	increased in number	increased in number	increment			same results	strong expression; also recorded: enhanced secretion	up-regulated	high expression

From US9597391B2, “Cyclic-dinucleotides and its conjugates as adjuvants and their uses in pharmaceutical compositions” (HELMHOLTZ_ZENTRUM FUER INFEKTIONSFORSCHUNG GMBH, priority 2005, dated 2017)
